Reference: patent US8003658B2, “Quinazoline derivatives for inhibiting cancer cell growth and method for the preparation thereof” (Hanmi Holdings Co., Ltd., priority 2004, dated 2011)
Like-named read-outs stand apart in the source and are kept apart here.

Experiments:
[1] = tested on: A431 (ATCC: CRL-1555); experiment: Test of cancer cell growth inhibition (SRB), A431; conditions: read-out: IC50 A431
[2] = tested on: SK-Br3 (ATCC: HTB-30); experiment: Test of cancer cell growth inhibition (SRB), SK-Br3; conditions: read-out: IC50 SK-Br-3
[3] = EGFR overexpressed A431, 72 hours, SRB

IC50 [1, 3]	IC50 ([2]; Homo sapiens, SK-BR-3, 72 h)	IC50 ([1]; Homo sapiens, A-431, 72 h)	IC50 ([2]; Erb-B2 overexpressed SK-Br3, 72 hours, SRB)	SMILES
513 nM	19 nM	–	–	C=CC(=O)N1CCC(C(=O)Nc2ccc3ncnc(Nc4ccc(OCc5ccccn5)c(Cl)c4)c3c2)CC1 [Example 156, 1-acryloyl-piperidine-4-carboxylic acid {4-[3-chloro-4-(pyridin-2-ylmethoxy)-phenylamino]-quinazolin-6-yl}-amide]
–	123 nM	5590 nM	–	C=CC(=O)N1CCC[C@H]1C(=O)Nc1ccc2ncnc(Nc3ccc(Oc4ccc(C)nc4)c(C)c3)c2c1 [Example 157, (2S)-1-acryloyl-pyrrolidine-2-carboxylic acid {4-[3-methyl-4-(6-methyl-pyridin-3-yloxy)-phenylamino]-quinazolin-6-yl}-amide]
–	48 nM	583 nM	–	C#Cc1cccc(Nc2ncnc3ccc(NC(=O)[C@@H]4CCCN4C(=O)C=C)cc23)c1 [Example 158, (2S)-1-acryloyl-pyrrolidine-2-carboxylic acid [4-(3-ethynyl-phenylamino)-quinazolin-6-yl]-amide]
–	223 nM	462 nM	–	C=CC(=O)N1CCC[C@H]1C(=O)Nc1ccc2ncnc(Nc3ccc(F)c(Cl)c3)c2c1 [Example 159, (2S)-1-acryloyl-pyrrolidine-2-carboxylic acid [4-(3-chloro-4-fluoro-phenylamino)-quinazolin-6-yl]-amide]
–	437 nM	6930 nM	–	C=CC(=O)N1C[C@H](S(=O)(=O)CC)C[C@H]1C(=O)Nc1ccc2ncnc(Nc3ccc(OCc4ccccn4)c(Cl)c3)c2c1 [Example 160, (2S,4R)-1-acryloyl-4-ethanesulfonyl-pyrrolidine-2-carboxylic acid {4-[3-chloro-4-(pyridin-2-ylmethoxy)-phenylamino]-quinazolin-6-yl}-amide]
–	19 nM	680 nM	–	C=CC(=O)N1C[C@H](OC)C[C@H]1C(=O)Nc1ccc2ncnc(Nc3ccc(OCc4ccccn4)c(Cl)c3)c2c1 [Example 161, (2S,4R)-1-acryloyl-4-methoxy-pyrrolidine-2-carboxylic acid {4-[3-chloro-4-(pyridin-2-ylmethoxy)-phenylamino]-quinazolin-6-yl}-amide]
286 nM	28 nM	–	–	C=CC(=O)N1CCCC(C(=O)Nc2ccc3ncnc(Nc4ccc(OCc5ccccn5)c(Cl)c4)c3c2)C1 (stereo not shown) [Example 162, 1-acryloyl-piperidine-3-carboxylic acid {4-[3-chloro-4-(pyridin-2-ylmethoxy)-phenylamino]-quinazolin-6-yl}-amide]
1400 nM	60 nM	–	–	C=CC(=O)N1CC(C(=O)Nc2ccc3ncnc(Nc4ccc(OCc5ccccn5)c(Cl)c4)c3c2)C1 [Example 163, 1-acryloyl-azetidine-3-carboxylic acid {4-[3-chloro-4-(pyridin-2-ylmethoxy)-phenylamino]-quinazolin-6-yl}-amide]
105 nM	12 nM	–	–	C=CC(=O)N1CCCCC1C(=O)Nc1ccc2ncnc(Nc3ccc(OCc4ccccn4)c(Cl)c3)c2c1 (stereo not shown) [Example 164, 1-acryloyl-piperidine-2-carboxylic acid {4-[3-chloro-4-(pyridin-2-ylmethoxy)-phenylamino]-quinazolin-6-yl}-amide]
–	5 nM	215 nM	–	C=CC(=O)N1CCC[C@H]1C(=O)Nc1cc2c(Nc3ccc(OCc4ccccn4)c(Cl)c3)ncnc2cc1F [Example 165, (2S)-1-acryloyl-pyrrolidine-2-carboxylic acid {4-[3-chloro-4-(pyridin-2-ylmethoxy)-phenylamino]-7-fluoro-quinazolin-6-yl}-amide]
–	6 nM	68 nM	–	C=CC(=O)N1CCC[C@H]1C(=O)Nc1cc2c(Nc3ccc(OCc4ccccn4)c(C)c3)ncnc2cc1OC [Example 168, (2S)-1-acryloyl-pyrrolidine-2-carboxylic acid {7-methoxy-4-[3-methyl-4-(pyridin-2-ylmethoxy)-phenylamino]-quinazolin-6-yl}-amide]
–	24 nM	79 nM	–	C=CC(=O)N1CCCC1CC(=O)Nc1cc2c(Nc3ccc(OCc4ccccn4)c(Cl)c3)ncnc2cc1OC (stereo not shown) [Example 169, 2-(1-acryloyl-pyrrolidin-2-yl)-N-{4-[3-chloro-4-(pyridin-2-ylmethoxy)-phenylamino]-7-methoxy-quinazolin-6-yl}-acetamide]
–	2 nM	199 nM	–	C=CC(=O)N1CCC[C@H]1C(=O)Nc1cc2c(Nc3ccc(OCc4ccccn4)c(Cl)c3)ncnc2cc1OCC [Example 170, (2S)-1-acryloyl-pyrrolidine-2-carboxylic acid {4-[3-chloro-4-(pyridin-2-ylmethoxy)-phenylamino]-7-ethoxy-quinazolin-6-yl}-amide]
–	31 nM	306 nM	–	C=CC(=O)N1CCC[C@H]1C(=O)Nc1cc2c(Nc3ccc(OCc4ccccn4)c(Cl)c3)ncnc2cc1SCC [Example 171, (2S)-1-acryloyl-pyrrolidine-2-carboxylic acid {4-[3-chloro-4-(pyridin-2-ylmethoxy)-phenylamino]-7-ethylsulfanyl-quinazolin-6-yl}-amide]
–	4520 nM	≥ 10000 nM	–	C=CC(=O)N1CCC[C@H]1C(=O)Nc1cc2c(Nc3ccc(OCc4ccccn4)c(Cl)c3)ncnc2cc1OCC1CC1 [Example 172, (2S)-1-acryloyl-pyrrolidine-2-carboxylic acid {4-[3-chloro-4-(pyridin-2-ylmethoxy)-phenylamino]-7-cyclopropylmethoxy-quinazolin-6-yl}-amide]
–	29 nM	552 nM	–	C=CC(=O)N1CCC[C@H]1C(=O)Nc1cc2c(Nc3ccc(OCc4ccccn4)c(Cl)c3)ncnc2cc1OC1CCCC1 [Example 173, (2S)-1-acryloyl-pyrrolidine-2-carboxylic acid {4-[3-chloro-4-(pyridin-2-ylmethoxy)-phenylamino]-7-cyclopentyloxy-quinazolin-6-yl}-amide]
–	35 nM	956 nM	–	C=CC(=O)NCCC(=O)Nc1ccc2ncnc(Nc3ccc(OCc4ccncc4)c(Cl)c3)c2c1 [Example 174, N-(2-{4-[3-chloro-4-(pyridin-4-ylmethoxy)-phenylamino]-quinazolin-6-ylcarbamoyl}-ethyl)-acrylamide]
48 nM	–	–	26 nM	COc1cc2ncnc(Nc3ccc(OCc4ccccn4)c(Cl)c3)c2cc1NC(=O)[C@@H]1CCCN1C(=O)C=CCN(C)C [Example 175, (2S)-1-(4-dimethylamino-buten-2-oyl)-pyrrolidine-2-carboxylic acid {4-[3-chloro-4-(pyridin-2-ylmethoxy)-phenylamino]-7-methoxy-quinazolin-6-yl}-amide]
–	34 nM	517 nM	–	C=CC(=O)N1CCC[C@H]1C(=O)Nc1cc2c(Nc3ccc(OCc4ccccn4)c(Cl)c3)ncnc2cc1Cl [Example 176, (2S)-1-acryloyl-pyrrolidine-2-carboxylic acid {7-chloro-4-[3-chloro-4-(pyridin-2-ylmethoxy)-phenylamino]-quinazolin-6-yl}-amide]
–	9 nM	78 nM	–	C=CC(=O)N1CCC[C@H]1C(=O)Nc1cc2c(Nc3ccc(OCc4ccccn4)c(C)c3)ncnc2cc1F [Example 177, (2S)-1-acryloyl-pyrrolidine-2-carboxylic acid {7-fluoro-4-[3-methyl-4-(pyridin-2-ylmethoxy)-phenylamino]-quinazolin-6-yl}-amide]
